In BindingDB's records for patent US20240018140 (Merck Sharp & Dohme, 2024) one finds EC50 data, which are given here for 2 compounds.

This test deals with T1, Ceramide glucosyltransferase (Homo sapiens, UniProt Q16739).
T1 sequence (Q16739 whole entry): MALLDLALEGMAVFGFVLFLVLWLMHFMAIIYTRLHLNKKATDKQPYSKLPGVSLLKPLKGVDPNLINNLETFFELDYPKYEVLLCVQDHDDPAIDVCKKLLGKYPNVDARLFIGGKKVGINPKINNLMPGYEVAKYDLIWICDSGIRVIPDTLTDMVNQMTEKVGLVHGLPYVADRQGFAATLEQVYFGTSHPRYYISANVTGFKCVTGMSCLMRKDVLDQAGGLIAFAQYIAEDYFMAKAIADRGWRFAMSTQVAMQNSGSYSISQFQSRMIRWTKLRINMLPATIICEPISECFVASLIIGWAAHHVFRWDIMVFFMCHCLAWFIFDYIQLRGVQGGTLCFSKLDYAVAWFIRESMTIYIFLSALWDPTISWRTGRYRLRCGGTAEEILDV
In words: UDP-Glo Glucosylceramide Synthase Biochemical Assay. On the procedure:
Using Promega's UDP-Glo Glycosyltransferase assay kit (Promega Corporation, Madison, WI, USA (Promega)), GCS activity was indirectly measured by detecting the amount of UDP produced. An aliquot of GCS enzyme (1.5 μg crude golgi preparation, total protein) and titrated test compound were aliquoted to each well and incubated for 30 minutes at room temperature. […] An equivalent volume of substrate mixture was then added to each well. Following a 20 h incubation at room temperature to allow for GCS turnover of substrate, an equal volume of UDP detection reagent (Promega) was added to each well and incubated for an additional 75 minutes at room temperature to simultaneously convert the accumulated UDP product into ATP and generate light in a luciferase reaction. The generated light was detected using a luminometer.

On to `COCC1(NC(=O)c2cn3cc(Cl)cc(-c4ccccc4OCC(F)(F)F)c3n2)CC1` [US20240018140, Compound 6], for which the midpoint of the response, the EC50, lay at 2.4 nM.

For the compound `CN1CCN(C(=O)c2cn3cc(Cl)cc(-c4ccccc4OCC(F)(F)F)c3n2)CC1(C)C` [US20240018140, Compound 7], the EC50 was 1.2 nM.
